“Also recorded” adds a separate entry of the source. Structures can show the parent of a compound that is named as a salt.
Test system: Subjects with Refractory Solid Tumors
Assay: Phase I clinical trial: open-label, dose-escalating, multiple-dose study of weekly intravenous administration
Format: in vivo
Details: human subjects
Protocol: An open-label, dose-escalating, multiple-dose study to define the safety, tolerability and phamacokinetics of weekly intravenous administration of (4-Methoxy-phenyl)-methyl-(2-methyl-quinazolin-4-yl)-amine hydrochloride was performed. A dosing schedule (each 4 week cycle) was performed for (4-Methoxy-phenyl)-methyl-(2-methyl-quinazolin-4-yl)-amine hydrochloride weekly for 3 weeks with no infusion on the fourth week of each cycle. Subjects with refractory solid tumors were enrolled in cohorts of 3. During Cycle 1, subjects were hospitalized during each infusion of (4-Methoxy-phenyl)-methyl-(2-methyl-quinazolin-4-yl)-amine hydrochloride and remained for observation and safety evaluation for approximately 24 hours following the end of the infusion. All subject had continuous telemetry for 2 hours prior to infusion, for 1-2 hour infusion and for 3 hours after the end of the infusion. Any clinically significant electrocardiographic (ECG) wave form abnormality was recorded and prolongation of the monitoring period extended at the discretion of the principal investigator.
Electrocardiograms were obtrained prior to starting the infusion and within 30 minutes of the end of infusion for each infusino of the first cycle. Electrocardiograms on Day 1 were obtained in triplicate 5 minutes apart.
Neurocognitive assessments were made by administration of the Mini-Mental State Examination (MMSE), the Hopkins Verbal Learning and timed Grooved Pegboard tests before administration of the intravenous infusion and approximately 24 hours of the infusion at each weekly administration of the first cycle.
On days 1, 8, and 15 of each cycle, vital signs were obtained prior to the first dose, at 15, 30, and 60 minutes after the initiation of the infusion, and at 0.5, 1, 1.5, 2, and 4 hours after the end of the intravenous infusion. Vital signs at all time points beyond the start of the intravenous infusion included heart rate, blood pressure and respirations. Temperature ws measured at the end of the infusion and 4 hours later.
Individual subjects were allowed to continue on repeated weekly×3 administrations every 28 days with no dose increase provided there was no unacceptable toxicity or disease progression.
Tumor response was evaluated by response evaluation criteria in solid tumors (RECIST) criteria. To prevent sever hypersensitivity reactions due to Cremophor® EL, subjects were premedicated with oral dexamethasone (20 mg) administered approximately 12 and 6 hours before the intrvenous infusion with (4-Methoxy-phenyl)-methyl-(2-methyl-quinazolin-4-yl)-amine hydrochloride, diphenhydramine (50 mg) or its equivalent administered intravenously 30-60 minutes before (4-Methoxy-phenyl)-methyl-(2-methyl-quinazolin-4-yl)-amine hydrochloride, and cimetidine (300 mg) or ranitidine (50 mg) administered intravenously 30-60 minutes before (4-Methoxy-phenyl)-methyl-(2-methyl-quinazolin-4-yl)-amine hydrochloride.

[1] = weekly i.v. infusion, 0.3-3.3 mg/m^2

In the case of `COc1ccc(N(C)c2nc(C)nc3ccccc23)cc1` [(4-Methoxy-phenyl)-methyl-(2-methyl-quinazolin-4-yl)-amine hydrochloride], the “effects on cardiac conduction (PR, QRS or QTc)” value (ECG, weekly i.v. infusion, 0.3-3.3 mg/m^2) is reported as “no significant effects”, the safety and tolerability (weekly i.v. administration, various dosages, hydrochloride) is reported as “safe and well tolerated; also recorded: safe and tolerable” and the peripheral cytotoxicity (weekly i.v. infusion for 3 weeks of each 4 week cycle, 0.3-3.3 mg/m^2) is reported as “no evidence of cytotoxity peripherally”. The bradycardia [1] was “occasional episodes of bradycardia”, the dose limiting toxicity [1] was “vascular in nature, manifested by an acute coronary syndrome” and the intratumor bleeding [1] was “incidences of intratumor bleeding”. For the same molecule, the systolic blood pressure [1] was “dose-related increase”.

— patent US20100129470A1, “METHOD OF TREATING BRAIN CANCER” (Myriad Pharmaceuticals, Incorporated, priority 2007, published 2010)
